These results are taken from publication PMC3714338 (Analytical biochemistry, 2013).

As a reminder, the Ki is a dissociation constant, usually derived from enzyme kinetics or from competition with a known ligand. Read a high Ki as a looser hold on the target.

The experiment addresses Mtb APR (adenosine 5′-phosphosulfate reductase; also MtbAPSR) (Mycobacterium tuberculosis, UniProt P9WIK3). The experiment is described as follows: biochemical.

Each structure is given as a SMILES string.

Chain of Mtb APR (adenosine 5′-phosphosulfate reductase; also MtbAPSR) (P9WIK3 whole entry, looked up): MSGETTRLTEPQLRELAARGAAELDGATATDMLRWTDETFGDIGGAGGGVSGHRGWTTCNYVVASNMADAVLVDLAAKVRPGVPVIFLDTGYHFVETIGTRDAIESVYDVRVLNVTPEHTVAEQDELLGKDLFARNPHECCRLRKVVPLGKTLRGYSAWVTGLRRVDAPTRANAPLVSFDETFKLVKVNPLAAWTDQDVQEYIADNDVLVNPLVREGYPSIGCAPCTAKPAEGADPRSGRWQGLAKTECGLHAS

`Nc1ncnc2c1ncn2[C@@H]1O[C@H](COP(=O)(O)OP(=O)(O)O)[C@@H](O)[C@H]1O` [ADP] gave a Ki of 83 ± 0.2 µM.
